Experiments:
in vivo = settings: rat, in vivo, ip; 5 days; hydrochloride salts; range in parentheses; read-out: DL50 i.p.
Description: (§1) The behavior of the animals has then been followed for a period of five days. The DL50 has been determined according to the method of I. T. Litchfield and F. Wilcoxon, (J. Pharmacol. Exper. Ther., 96, 99, 1949). The compound numbers in Table II correspond to the numbers in Table I.

Swiss rats = assay: in vivo; settings: lidocaine = 1
Description: as §1

[1] = test system: response to skin puncture; assay: Anaesthesia by infiltration (subcutaneous, back puncture); assay type: in vivo, guinea pigs; settings: for Infiltration anaesthesia DL50/CE50: analogous to therapeutic index, DL50 i.p.; for Infiltration anaesthesia CE50: concentration in percent achieving 50% of total responses, hydrochloride salts; for Infiltration anaesthesia DL50/CE50 relative to lidocaine / Infiltration anaesthesia activity with respect to lidocaine: lidocaine = 1
Method: The anaesthesia by infiltration has been determined in guinea pigs according to the method of E. Bulbring and I. Wajda, (Journal of Pharmacol. Exper. Ther. 85, 78, 1945). In each experiment, four doses of the substance in 0.25 cc of physiological saline solution is injected subcutaneously on the back after removal of hair. After five minutes, each animal is punctured six times at intervals of […].
The test was repeated every five minutes for a period of 30 minutes. The extent of anaesthesia by infiltration was measured quantitatively by determining the sum of the instances in which the animal remained immobile during the thirty minute period on 36 possible blinks.

[2] = test system: aconitine-induced ventricular arrhythmia; assay: Anti-arrhythmic activity, aconitine infusion; assay type: in vivo, Wistar rats; settings: for Aconitine i.v. necessary to induce ventricular arrhythmia: 3 min before aconitine 10 mcg/kg/min; for Anti-arrhythmic activity compared with lidocaine: times more active than lidocaine; for Anti-arrhythmic activity compared with quinidine: times more active than quinidine
Method: (§2) The data reported hereinbelow relate in every instance to the hydrochloride salts of the individual compounds.
This determination has been made in Wistar rats, anaesthetized with ethylurethane, (1 g/kg i.p.), according to the method of B. Vargaftig and J. L. Coigner (European Journal Pharmacology, 6, 49, 1969). The compounds dissolved in physiological saline solution, are injected intravenously three minutes prior to the infusion of aconitine, (10 mcg/kg/min.). The extent of anti-arrhythmic activity is determined quantitatively by determining the amount of aconitine necessary to induce ventricular arrhythmia.

[3] = test system: reflux of contraction of the lower limbs (lumbar plexus); assay: Anaesthesia by conduction (lumbar plexus); assay type: in vivo, frogs; settings: for Conduction anaesthesia DL50/t' / Conduction anaesthesia 1/t'max. (c = 1%) with respect to lidocaine: c = 1%; for Conduction anaesthesia DL50/t': DL50 i.p.; for Conduction anaesthesia 1/t'max. (c = 1%) with respect to lidocaine / Conduction anaesthesia DL50/t' relative to lidocaine: lidocaine = 1
Description: Anaesthesia by conduction has been determined on frogs according to the method of E. Bulbring and I. Wajda (Journal Pharmacol. Exper. Ther., 85, 78, 1945). The compounds dissolved in physiological saline solution are introduced into the cavity obtained by a transversal incision in the abdomen and separating the viscera in order to expose the lumbar plexus. The period of time necessary to eliminate the reflux of contraction of the lower limbs stimulated by immersion of both posterior legs into hydrochloric acid of increasing concentration between 0.05-0.1-0.2 N for a period not in excess of ten seconds, at intervals of one minute is determined. The extent of anaesthesia of conduction has been determined by measuring the period of time required for each compound in three different concentrations, 0.2%-0.5%-1.0% in order to abolish the reflex of contraction with the concentration of hydrochloric acid indicated hereinabove.

corneal reflux = assay: Surface anaesthesia (corneal reflux, conjunctival sac); settings: for Surface anaesthesia DL50/CE50: analogous to therapeutic index, DL50 i.p.; for Surface anaesthesia CE50: concentration in percent achieving 50% of total responses, pH 7 saline, hydrochloride salts; for Surface anaesthesia activity with respect to lidocaine: lidocaine = 1
Method: as §2
The surface anaesthesia has been determined in rabbits according to the method of M. R. A. Change and H. Lobstein (J. Pharmacol. Exper. Ther., 82, 203, 1944). The compounds dissolved in physiological saline solution of pH 7 were injected into the conjunctival sac and the corneal reflux was induced with the brush of Frey six times at intervals of five minutes for a total period of 40 minutes.

| SMILES | LD50 at 120 h (in vivo) [mg/kg] | DL50 i.p. relative to lidocaine (Swiss rats) | Infiltration anaesthesia DL50/CE50 [1] | Infiltration anaesthesia CE50 [1] [%] | Infiltration anaesthesia DL50/CE50 relative to lidocaine [1] | Infiltration anaesthesia activity with respect to lidocaine [1] | Aconitine i.v. necessary to induce ventricular arrhythmia ([2]; 1.0 mg/kg i.v.) [µg/kg] | Aconitine i.v. necessary to induce ventricular arrhythmia ([2]; 3.0 mg/kg i.v.) [µg/kg] | Aconitine i.v. necessary to induce ventricular arrhythmia ([2]; 8.0 mg/kg i.v.) [µg/kg] | Conduction anaesthesia DL50/t' [3] | Conduction anaesthesia 1/t'max. (c = 1%) with respect to lidocaine [3] | Conduction anaesthesia DL50/t' relative to lidocaine [3] | Surface anaesthesia DL50/CE50 (corneal reflux) | Surface anaesthesia CE50 (corneal reflux) [%] | Surface anaesthesia activity with respect to lidocaine (corneal reflux) | Aconitine i.v. necessary to induce ventricular arrhythmia ([2]; 0.6 mg/kg i.v.) [µg/kg] | Anti-arrhythmic activity compared with lidocaine [2] | Anti-arrhythmic activity compared with quinidine [2] |
| --- | --- | --- | --- | --- | --- | --- | --- | --- | --- | --- | --- | --- | --- | --- | --- | --- | --- | --- |
| CCN(CC)Cc1ccc(C(=O)Nc2c(C)cccc2C)cc1 [Compound 3] | 82.5 | 0.58 | 10 | 8.02 | 0.05 | 0.09 | 38 ± 5 | 39 ± 6 | 47 ± 7 | 9 | 1.2 | 0.69 | 17 | 4.78 | 0.48 |  |  |  |
| CCN(CC)Cc1ccccc1C(=O)Nc1c(C)cccc1Cl [Compound 13] | 16.3 | 0.11 | 58 | 0.28 | 0.31 | 2.68 | 65 ± 7 | 67 ± 7 |  | 16 | 11.1 | 1.23 | 27 | 0.60 | 3.83 | 48 ± 6 | at least twenty times more active than lidocaine | at least ten times more active than quinidine |
| CCN(CC)Cc1ccccc1C(=O)Nc1c(C)cccc1C(=O)OC [Compound 14] | 24.7 | 0.17 | 57 | 0.43 | 0.30 | 1.74 | 60 ± 7 | 81 ± 7 |  | 5 | 2.2 | 0.38 | 60 | 0.41 | 5.61 | 45 ± 8 | at least twenty times more active than lidocaine | at least ten times more active than quinidine |

From US4305940A, “Benzamides with local anaesthetic and antiarrhythmic activity, salts, and method of preparation thereof and pharmaceutical compositions therefrom” (B.B.R. Boehringer Biochemia Robin S.p.A., priority 1979, dated 1981)
